The target of the assay is T1, BACE1 (Homo sapiens, UniProt P56817).
T1 construct: endogenous in cells; host or cells: HEK293 APP cells
Put plainly: Cellular Aβ-lowering assay (Abeta 40 AlphaLISA, HEK293 APP cells). To be noted: Aβ 40 in culture supernatant by AlphaLISA, 18-20 hrs incubation at 37° C., 1% DMSO. The format is cell-based. The protocol:
The compounds were investigated in accordance with the test given hereinafter.
The Abeta 40 AlphaLISA Assay can be used. The HEK293 APP cells were seeded in 96 well Microtiter plates in cell culture medium (Iscove's, plus 10% (v/v) fetal bovine serum, penicillin/streptomycin) to about 80% confluency and the compounds were added at a 3× concentration in ⅓ volume of culture medium (final DMSO concentration was kept at 1% v/v). After 18-20 hrs incubation at 37° C. and 5% CO2 in a humidified incubator, the culture supernatants were harvested for the determination of Aβ 40 concentrations using Perkin-Elmer Human Amyloid beta 1-40 (high specificity) Kit (Cat# AL275C).
In a Perkin-Elmer White Optiplate-384 (Cat# 6007290), 2 ul culture supernatants were combined with 2 μl of a 10× AlphaLISA Anti-hAβAcceptor beads+Biotinylated Antibody Anti-Aβ 1-40 Mix (50 μg/mL/5 nM). After 1 hour room temperature incubation, 16 μl of a 1.25× preparation of Streptavidin (SA) Donor beads (25 μg/mL) were added and incubated for 30 minutes in the Dark. Light Emission at 615 nm was then recorded using EnVision-Alpha Reader. Levels of Aβ 40 in the culture supernatants were calculated as percentage of maximum signal (cells treated with 1% DMSO without inhibitor). The IC50 values were calculated using the Excel XLfit software.

SMILES strings stand for the structures.

T1 sequence (P56817 46-501): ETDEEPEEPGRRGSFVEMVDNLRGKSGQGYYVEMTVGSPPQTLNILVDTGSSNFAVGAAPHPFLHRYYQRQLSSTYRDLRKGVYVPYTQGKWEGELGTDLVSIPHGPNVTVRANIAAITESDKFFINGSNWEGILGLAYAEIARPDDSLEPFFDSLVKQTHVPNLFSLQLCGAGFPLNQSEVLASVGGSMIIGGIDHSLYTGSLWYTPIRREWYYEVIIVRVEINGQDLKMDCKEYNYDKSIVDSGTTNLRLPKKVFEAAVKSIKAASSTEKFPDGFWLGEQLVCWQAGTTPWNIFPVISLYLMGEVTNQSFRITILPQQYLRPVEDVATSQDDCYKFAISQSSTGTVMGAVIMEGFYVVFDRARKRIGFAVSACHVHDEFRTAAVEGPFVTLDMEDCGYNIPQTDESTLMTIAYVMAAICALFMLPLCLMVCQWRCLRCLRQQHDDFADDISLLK

For `N#Cc1ccc(C(=O)Nc2ccc(F)c([C@]3(C(F)F)C[S@]4(=O)=NCCCCN4C(N)=N3)n2)nc1` [Example 6, N-[6-[(1S,10S)-8-Amino-10-(difluoromethyl)-1-oxo-1λ^6-thia-2,7,9-triazabicyclo[5.4.0]undeca-1,8-dien-10-yl]-5-fluoropyridin-2-yl]-5-cyanopyridine-2-carboxamide], half-maximal inhibition (IC50) required 78 nM.
Next, `N#Cc1ccc(C(=O)Nc2ccc(F)c([C@]3(C(F)F)C[S@@]4(=O)=NCCCCN4C(N)=N3)n2)nc1` [Example 7, N-[6-[(1R,10S)-8-Amino-10-(difluoromethyl)-1-oxo-1λ^6-thia-2,7,9-triazabicyclo[5.4.0]undeca-1,8-dien-10-yl]-5-fluoropyridin-2-yl]-5-cyanopyridine-2-carboxamide]: 147 nM.

Usually IC50 stands for the concentration that inhibits the measured activity by half. A lower IC50 goes with higher potency.

The values above are taken from US10047102B2, “Pyridyl-triazabicycles” (Hoffmann-La Roche Inc., priority 2014, dated 2018).
